Common to all, as to assay: NCI tumour cell line growth inhibition, 48 h
The test system of test [1] is Hs-578T.
Test [2] concerns DMS-114.
Test [3] deals with DLD-1.
Test [4] deals with M19-MEL.
Test [5] has as its system KM-20L2.
The subject of test [6] is LXFL 529.
In test [7] the test system is DMS-273.
In test [8] the test system is XF498.

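Each compound was tested at five concentrations against cells in 96-well plates for 48 hours. Abbreviation: GI50, concentration required for 50% inhibition of growth.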 The source made the active and inactive calls. Rule as the data show it: active = GI50 up to about 1.1 µM and inactive = higher.

As for `Oc1c(CN2CCOCC2)ccc(CN2CCOCC2)c1O`, in test [1], the GI50 was > 100 µM (inactive).

Consider `Nc1nc(SCC(=O)O)nc(O)c1N`, for which, in test [1], the GI50 is > 100 µM (inactive).

With `COc1cc(C2C3=C(COC3=O)Oc3cc4c(cc32)OCO4)ccc1O` (stereo unspecified), the GI50 in test [1] was 0.329 µM (active).

With `C(=N\OCc1ccccc1)/c1ncccc1C1OCCO1`, the GI50 in test [2], in test [3], in test [4], in test [5], in test [6] and in test [7] was > 100 µM (inactive) each time.

As to `O=C1NC(=O)C2=C1CCC2O` (stereo unspecified), the GI50 in test [1] is > 100 µM (inactive).

Turning to `O=C1/C(=C/c2cccs2)NC(=S)N1CN1CCCC(CO)C1` (stereo unspecified), the GI50 in test [1] is > 100 µM (inactive).

For `Cc1nc(C(N)=S)sc1C(=O)C/C(=N/N)C(=O)Nc1cccc(Cl)c1C`, the GI50 in test [1] is > 100 µM (inactive).

For `C=C1CCc2occ(C)c2C2C1C1=C(CC(C)C1=O)C1OC12C` (stereo unspecified), the GI50 in test [2] is 99.1 µM (inactive); in test [3], > 100 µM (inactive); in test [4] it was > 100 µM (inactive); in test [5], > 100 µM (inactive); in test [8], 91.6 µM (inactive); in test [6], > 100 µM (inactive).

As for `NC(=S)Nc1nc(=S)[nH]c2c1SC1=N/C(=C\c3ccco3)C(=O)N12`, the GI50 in test [1] was > 100 µM (inactive).

Consider `C=C1CC2(C[C@@H](c3ccccc3)O[C@@H](c3ccccc3)C2)OC1=O` (stereo partly specified), for which, in test [1], the GI50 is 2.31 µM (inactive).

In the case of `N/C(=N\Nc1cccc(Cl)c1)c1cccnc1`, the GI50 in test [1] is > 100 µM (inactive).

As to `CCCCCCCCCCOC1C(C(C)OCCCN(C)C)OC2OC3(CCCCC3)OC21` (stereo unspecified), the GI50 in test [1] was 18.1 µM (inactive).

As to `Cc1cccc2c1Oc1cc(Cl)ccc1C2NC(=O)CN(C)C` (stereo unspecified), the GI50 in test [2] is 34.9 µM (inactive); in test [3], 58.3 µM (inactive); in test [4], 20.9 µM (inactive); in test [5], 20 µM (inactive); in test [6], 57.4 µM (inactive); in test [7], 28.8 µM (inactive).

Take `O[C@]12C=C(c3nccc4c3[nH]c3ccccc34)[C@@H]3CCN(CCCC/C=C\CC1)C[C@@]31CC3/C=C\CCCCN3[C@H]12` (stereo partly specified): in test [1], the GI50 is 0.411 µM (active).

Turning to `CCN(CCO)CC1COc2ccccc2O1` (stereo unspecified), the GI50 in test [1] was > 100 µM (inactive).

In the case of `O=C1/C(=C/c2n[nH]cc2-c2ccc(Cl)cc2)C(=O)N(c2ccccc2)C1c1ccccc1` (stereo unspecified), the GI50 in test [1] was 9.4 µM (inactive).

For `Cc1nc(=O)n2c(c1C(=O)Nc1ccc(Cl)cc1)NCCC2`, the GI50 in test [2], in test [4], in test [8] and in test [6] was > 100 µM (inactive) throughout.

`Cc1ccc(C[N+](C)(C)N)cc1C`: the GI50 in test [1] was > 10 µM (inactive).

With `CCCC(=O)N1CCN(c2ccc3c(c2)OC(C)O3)CC1` (stereo unspecified), the GI50 in test [1] is > 100 µM (inactive).

On to `Cc1cc(C)n(C2OC(CO)C(O)C(O)C2O)c(=S)c1C#N` (stereo unspecified), for which, in test [1], the GI50 is > 100 µM (inactive).

Turning to `Cn1ncc(NCCn2cnc3c2c(=O)n(C)c(=O)n3C)c(Cl)c1=O`, in test [1], the GI50 is > 100 µM (inactive).

As to `Cc1ccc(/C=N/n2c(=O)[nH]c3ccccc3c2=O)cc1`, in test [1], the GI50 is > 100 µM (inactive).

For `Oc1ccc2ccccc2c1/N=N/c1cc(Cl)ccc1Cl`, in test [1], the GI50 is 10.1 µM (inactive).

In the case of `Cc1c(C)c2c(c(N)c1C#N)C(=O)N(NC(=S)Nc1ccccc1)C2=O`, the GI50 in test [1] was 42.1 µM (inactive).

Consider `NC12c3c4cccc3Oc3cccc(c31)Oc1cccc(c12)O4`, for which, in test [1], the GI50 is 31.3 µM (inactive).

For `C/C=C(\C)c1cc(O)c(C)c2c1Oc1cc(O)c(Cl)c(C)c1C(=O)O2`, the GI50 in test [2] was 29.6 µM (inactive); in test [3], 17.4 µM (inactive); in test [4], 34 µM (inactive); in test [5], 20.7 µM (inactive); in test [6] it was 24.8 µM (inactive); in test [7], 34.1 µM (inactive).

With `CC(=O)N(CN1C(=O)CCC1C(=O)O)c1ccccc1Cl` (stereo unspecified), in test [1], the GI50 was > 100 µM (inactive).

As to `COc1c(C2(c3ccc(F)cc3)SCCCS2)c(=O)c1=O`, the GI50 in test [1] is > 100 µM (inactive).

For `Fc1ccc(Nc2nc(Cl)c3nc[nH]c3n2)cc1Cl`, the GI50 in test [1] is 39.9 µM (inactive).

Consider `CCOC(=O)c1c(N2CCCC2)ncn(-c2ccccc2)c1=S`, for which, in test [1], the GI50 was > 100 µM (inactive).

Regarding `CCOC(=O)Oc1ccc2c(c1)c(=O)c1c(NCCN(CC)CC)ccc3nnn2c31`, the GI50 in test [1] is 5.11 µM (inactive).

As to `CCCCCCCCCCCCOCCCCCCCCC/C=C/c1ccc2c(c1)OCCOCCOCCOCCO2`, the GI50 in test [1] is 16.4 µM (inactive).

In the case of `O=S(=O)(NC1OCCCC1I)c1ccccc1` (stereo unspecified), in test [1], the GI50 is > 100 µM (inactive).

For `COc1ccc(-c2c3c(n(C4OC(CO)C(O)C(O)C4O)c(=S)c2C#N)CCCC3)cc1` (stereo unspecified), the GI50 in test [1] was > 100 µM (inactive).

As to `CC(=O)N1C(CCc2ccccc2)CC(C)(C=O)C1Cc1ccc(O[Si](C(C)C)(C(C)C)C(C)C)cc1` (stereo unspecified), in test [1], the GI50 is 3.28 µM (inactive).

With `Cc1ccc(/N=N/c2ccc(O)c(CN(C)C)c2)cc1C`, the GI50 in test [1] is 16.4 µM (inactive).

For `O=C1CC2OCC=C3CN4CCC5(C(=O)O)C(N1)C2C3CC45` (stereo unspecified), the GI50 in test [1] is > 100 µM (inactive).

On to `CC1OC(OC2C(O[C@H]3CC[C@@]4(C)C(=CC[C@H]5[C@@H]6C[C@@H]7O[C@]8(CC[C@@H](CO)CO8)[C@@H](C)[C@@H]7[C@@]6(C)CC[C@@H]54)C3)OC(CO)C(O)C2OC2OC(CO)C(O)C(O)C2O)C(O)C(O)C1O` (stereo partly specified), for which the GI50 in test [1] is 2.91 µM (inactive).

Consider `CCCCCCCC(=O)OC[n+]1cccc(-c2c(COC(=O)NC(C)C)c(COC(=O)NC(C)C)c3n2CCC3)c1`, for which the GI50 in test [1] is > 100 µM (inactive).

Turning to `COc1ccc(Nc2nc3ccc(C(F)(F)F)cc3nc2C(=O)O)cc1OC`, the GI50 in test [1] was 38.6 µM (inactive).

In the case of `O=C(N/N=C\c1ccc([N+](=O)[O-])s1)c1ccncc1`, the GI50 in test [1] is 15.8 µM (inactive).

Take `CC1(C(=O)O)CCOc2ccccc21` (stereo unspecified): the GI50 in test [2], in test [3], in test [4], in test [5] and in test [6] was > 100 µM (inactive) each time.

Consider `CC1=C(CCC(C)CO)O[C@H]2C[C@H]3[C@@H]4CC[C@H]5C[C@@H](O)CC[C@]5(C)[C@H]4CC(=O)[C@]3(C)[C@@H]12` (stereo partly specified), for which, in test [1], the GI50 is 17.1 µM (inactive).

Regarding `COC(=O)C(=O)C(C(=O)C(=O)Nc1ccc(C)c(C)c1)c1nc2ccc([N+](=O)[O-])cc2nc1O` (stereo unspecified), the GI50 in test [1] is > 100 µM (inactive).

Regarding `O=[N+]([O-])c1cccc(-c2nc(-c3ccccc3)c(-c3ccccc3)[nH]2)c1`, the GI50 in test [1] was > 100 µM (inactive).

In the case of `COc1ccc(Cc2nc3cc(Cl)ccc3o2)cc1`, the GI50 in test [1] was 49.2 µM (inactive).

As for `CCN1C[C@]2(C)CC[C@H](OC)C34C5C[C@@H]6[C@@H](OC)C[C@@](OC)(C5[C@H]6OCc5ccccc5)C(C13)[C@H](OC(C)=O)[C@@H]42` (stereo partly specified), the GI50 in test [1] is > 100 µM (inactive).

Take `Clc1ccc(C(c2ccc(Cl)cc2)N2CCNCC2)cc1`: the GI50 in test [1] was 2.74 µM (inactive).

For `CO[C@@H]1C[C@H](OC(N)=O)[C@@H]2C=C[C@@H]3/C=C(C)/C=C/[C@@H](C)[C@H](/C(C)=C/[C@@H](C)NC(C)=O)OC(=O)/C=C/C=C(C)\C=C\[C@]3(C)[C@@H]2C1` [SUPERSTOLIDE B], the GI50 in test [1] was < 0.005 µM (active).

For the origin of these results see ChEMBL document CHEMBL1201862, “PubChem BioAssay data set” (2004).
